Reference: US12410211B2, “V1A receptor partial agonist and method of use” (PharmaIN Corporation, priority 2020, dated 2025)
Where two headings read alike, the source gives them in different places. Marks after values point to notes of the source that are not given here.

Assays:
V1a receptor = molecular target: T1, V1a receptor (Homo sapiens, UniProt P37288); assay: V1a Human Vasopressin GPCR Cell Based Agonist Calcium Flux Assay; settings: n = 2; for Emax: read-out: V1a Highest agonist effect (% of AVP)
T1 construct: host or cells: CHO cells
Procedure: Peptides of Formula (I) include Mpa-Tyr-Phe-Hgn-Asn-Cys-Pro-Lys(X)a-Gly-NH2 [SEQ ID NO. 24]; where (X)a is a peptide with “a” residues and each residue X is independently selected from Gly, and a D- or L-amino acid version of Ala, Lys, Orn, Glu, and Asp, where “a” is 0-10. V1a Human Vasopressin GPCR Cell Based Agonist Calcium Flux Assay were conducted at Eurofins Cerep SA (France) on a fee for service basis. Human recombinant CHO cells expressing human V1 receptors were distributed in microplates. Intracellular calcium signal was detected by fluorimetry, and the signal was acquired before and after addition of a known agonist concentration. The following agonist concentrations were tested (nM); 0.0128, 0.064, 0.32, 1.6, 8, 40, 200, and 1,000. […] All assays were performed in duplicate. Changes in fluorescence intensity reflected changes in the concentration of free cytosolic calcium. […] The half-maximal effective concentration (EC50) was determined by a non-linear regression analysis of the concentration-response curves generated with mean replicate values using Hill equation curve fitting (Cerep, I'Evescault, France).
V1a Human Vasopressin GPCR Cell Based Agonist Calcium Flux Assay were conducted using human recombinant CHO cells expressing human V1 receptor. Briefly, human recombinant CHO cells expressing human V1 receptor were distributed in microplates at 4.5×10^4 cells/well. The fluorescent probe (Fluo4 Direct, Invitrogen) mixed with probenicid in HBSS buffer (Invitrogen) complemented with 20 mM HEPES (Invitrogen) (pH 7.4) is then added into each well and equilibrated with the cells for 60 min at 37° C. then 15 min at 22° C. Thereafter, the assay plates are positioned in a microplate reader (CellLux, PerkinElmer) which is used for the addition of the test compound, reference agonist or HBSS buffer (basal control), and the measurements of changes in fluorescence intensity which varies proportionally to the free cytosolic Ca^2+ ion concentration. The following agonist concentrations were tested (nM), 0.0128, 0.064, 0.32, 1.6, 8, 40, 200, and 1,000. […] All assays were performed in duplicate. Changes in fluorescence intensity reflected changes in the concentration of free cytosolic calcium. […] Referring to FIG. 3 and Table 4, the half-maximal effective concentration (EC50) was determined by non-linear regression analysis of the concentration-response curves generated with mean replicate values using Hill equation curve fitting (Cerep, I'Evescault, France).

[1] = Therapeutic index (NOAEL/NOEL): paleness, lethargy, ataxia observation in Sprague-Dawley rats (Example 7); assay type: in vivo; settings: for NOAEL at 24 h: male, Sprague-Dawley
From the text: As used herein, the term “therapeutic index” (TI; also referred to as therapeutic ratio) is a quantitative measure of the relative safety of a drug. […] For the purpose of the present application, lethargy is a lack of energy and/or sleepiness which is visually observed in rats as a lack of mobility, such as a lack of mobility even in the presence of human activity. For the purpose of present specification, peripheral vasoconstriction is visually observed by a paleness of the extremities (e.g., skin of hands, feet, ears, and lips). In rats, peripheral vasoconstriction is determined by a side-by-side comparison of ear paleness in treated subjects (e.g., Sprague Dawley rats, a white rat with easily visualizable changes in redness/paleness) vs. untreated control subjects. The V1a agonist (or partial agonist) with a high therapeutic index will have a better safety profile than that with a low therapeutic index by providing a wider margin of safety for dosing during the treatment of the disease. This NOAEL/NOEL ratio, being a quantitative measure of the relative safety, is a comparison of the amount of a therapeutic agent that causes the therapeutic effect (useful effect, vasoconstriction for the purpose of the present specification) to the amount that causes toxicity. A V1a agonist that causes severe vasoconstriction will affect not only the peripheral vessels, with several layer of smooth muscles, but also other vessels present in other organs (e.g., heart, lungs, kidney, brain) and this will result in observed lethargy and eventually ataxia. A partial agonist is less likely to reach such an extreme level of vasoconstriction and is believed to have a higher therapeutic index.
In this study, 8 to 10 weeks male Sprague-Dawley rats (Charles River; Wilmington, MA) under isoflurane anesthesia (n=3 or 6) were intravenously (IV) or subcutaneously (SC) injected or administered with various test articles. Prior to administration of test articles, the injection area was clipped free of fur, to allow for clear visualization of the dose site, and animal weight was measured and recorded. Animals were housed two per cage. […] Lethargy is when the animal eyes cannot fully open and is associated deep breathing and limited of movement even in the presence of human.

[2] = Telemetric evaluation of portal vein pressure in rats with bile duct ligation (Example 9); assay type: in vivo, Sprague Dawley rats; settings: for Percent decrease (%) in Mean Portal Vein Pressure (MPVP) from BDL baseline prior to treatment: BDL rats n = 4, 12 μg/kg subcutaneous
Procedure: For this study, animals (Sprague Dawley rats (240-300 g at surgery from Charles River Laboratory) were maintained at room temperatures (20 to 22° C.) with 14-hour light, 10-hour dark cycle when not performing study procedures. The mean portal vein pressure (MPVP) reduction efficacy of a peptide of Formula ([…] [SEQ ID NO. 13]; Mpa and C are disulfide bonded; represented as TA-1) was compared to terlipressin in telemetered male with Bile Duct Ligation (BDL) and Sham surgery. On Study Day 1, rats received bile duct ligation surgery and telemetry implantation. The BDL group (n=4) had two stands of silk suture tightened and tied to occlude the bile duct; the sham group (n=3) had sutures loosely tied around the bile duct so that no occlusion occurred. After recovery from surgery, all rats had their portal vein pressure monitored continuously via telemetry until Day 22. […] Terlipressin was administered through intravenous bolus into a lateral tail vein on Day 20 and 21. All animals were dosed under manual restraint. Systolic portal vein pressure and diastolic portal vein pressure were measured to calculate the Mean Portal Vein Pressure ([…] was analyzed by averaging 5 minute intervals for the first 4 hours after dose and thereafter averaging 1 hour intervals after dose until 24 hours. […] Telemetric evaluation of […] [SEQ ID NO. 13] and Terlipressin on portal vein pressure in rats with bile duct ligation. The animal room temperatures were set to maintain 20 to 22° C. A 14-hour light, 10-hour dark cycle was implemented unless interrupted by study procedures. Efficacy was assessed by evaluating mean portal vein pressure (MPVP) at different concentrations of Formula 1 and Terlipressin in telemetered male Sprague Dawley rats (240-300 g at surgery from Charles River Laboratory) with Bile Duct Ligation (BDL) and Sham surgery. On Study Day 1, rats received bile duct ligation surgery and telemetry implantation. The BDL group (n=4) had two stands of silk suture tightened and tied to occlude the bile duct; the sham group (n=3) had sutures loosely tied around the bile duct so that no occlusion occurred. After recovery from surgery, all rats had their portal vein pressure monitored continuously via telemetry until Day 22. […] Formula 1 was administered at different concentrations subcutaneously on Day 15 to 19, and Day 23; Terlipressin was administered through intravenous bolus into a lateral tail vein on Day 20 and 21. All animals were dosed under manual restraint. Systolic portal vein pressure and diastolic portal vein pressure were measured to calculate the Mean Portal Vein Pressure ([…] was analyzed by averaging 5 minute intervals for the first 4 hours after dose and thereafter averaging 1 hour intervals after dose until 24 hours.

[3] = S.C., at the Marked adverse effect dose
[4] = S.C., at the Mild adverse effect dose
[5] = in vivo, sc, S.C., rat, read-out: Highest dose with no-observed adverse effect level without lethargy (NOAEL)
[6] = Table 3, CHO cells expressing human V1 receptor, read-out: Estimated V1a EC50 (nM)

T1 sequence (P37288 whole entry): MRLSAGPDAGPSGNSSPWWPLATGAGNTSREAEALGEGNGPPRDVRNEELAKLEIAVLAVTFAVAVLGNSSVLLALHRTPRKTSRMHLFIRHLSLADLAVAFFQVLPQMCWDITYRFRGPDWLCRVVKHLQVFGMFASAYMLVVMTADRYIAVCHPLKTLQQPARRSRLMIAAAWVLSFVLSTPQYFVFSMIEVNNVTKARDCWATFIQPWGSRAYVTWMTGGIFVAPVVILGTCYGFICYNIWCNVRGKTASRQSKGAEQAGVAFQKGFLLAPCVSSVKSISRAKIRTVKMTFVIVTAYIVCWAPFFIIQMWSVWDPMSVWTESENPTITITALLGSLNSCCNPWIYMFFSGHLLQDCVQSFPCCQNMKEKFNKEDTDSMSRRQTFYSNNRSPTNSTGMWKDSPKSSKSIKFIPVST

Row | Compound | Emax (V1a receptor) | Paleness (Duration, hrs; SD) [1, 3] | Paleness (Duration, hrs; SD) [1, 4] | Paleness (Duration, hrs; SD) ([1]; S.C., at the NOAEL dose) | Paleness (Duration, hrs; SD) ([1]; S.C., at the NOEL dose) | Highest dose with no-observed effect level or paleness (NOEL) ([1]; S.C., rat) | NOAEL at 24 h [1, 5] | Marked adverse effect (Lowest dose first showed Ataxia) ([1]; rat, in vivo, sc) | Mild adverse effect (Lowest dose first showed Lethargy) ([1]; rat, in vivo, sc) | drop in portal pressure compared to Terlipressin (41 ug/kg) ([2]; 12 ug/kg dose, BDL rats) | Percent decrease (%) in Mean Portal Vein Pressure (MPVP) from BDL baseline prior to treatment ([2]; Time 1 hr) | Percent decrease (%) in Mean Portal Vein Pressure (MPVP) from BDL baseline prior to treatment ([2]; Time 4 hr) | Percent decrease (%) in Mean Portal Vein Pressure (MPVP) from BDL baseline prior to treatment ([2]; Time 7 hr) | Percent decrease (%) in Mean Portal Vein Pressure (MPVP) from BDL baseline prior to treatment ([2]; Time 20 hr) | EC50 (V1a receptor; [6]) | Emax (V1a receptor; Table 3) | NOAEL/NOEL (therapeutic index) ([1]; S.C., rat) | EC50 (V1a receptor; Table 3, cells printed in μM, read-out: Estimated V1a EC50) | NOAEL [1, 5]
1 | NCC(=O)NCC(=O)NCC(=O)NCC(=O)NCC(=O)NCC(=O)NCCCC[C@H](NC(=O)[C@@H]1CCCN1C(=O)[C@@H]1CSSCCC(=O)N[C@@H](Cc2ccc(O)cc2)C(=O)N[C@@H](Cc2ccccc2)C(=O)N[C@@H](CCCC(N)=O)C(=O)N[C@@H](CC(N)=O)C(=O)N1)C(=O)NCC(N)=O [SEQ ID NO. 13, Mpa-Tyr-Phe-Hgn-Asn-Cys-Pro-Lys(X)a-Gly-NH2; (X)a = (Gly)6] | 28.2% | (>5.6)* hrs | (6.23 ± 0.06) hrs | (6.07 ± 0.08) hrs | None observed | 0.003 mg/kg | 0.3 mg/kg | 5.0 mg/kg | 0.5 mg/kg | more effective in providing a sustain drop in portal pressure | 5% | −30.5% | −10.5% | −29.75% | – | – | – | – | –
2 | NCC(=O)NCC(=O)NCCCC[C@H](NC(=O)[C@@H]1CCCN1C(=O)[C@@H]1CSSCCC(=O)N[C@@H](Cc2ccc(O)cc2)C(=O)N[C@@H](Cc2ccccc2)C(=O)N[C@@H](CCCC(N)=O)C(=O)N[C@@H](CC(N)=O)C(=O)N1)C(=O)NCC(N)=O [SEQ ID NO. 9, Mpa-Tyr-Phe-Hgn-Asn-Cys-Pro-Lys(X)a-Gly-NH2; (X)a = (Gly)2] | – | (>5.99)* hrs | (>6.04)* hrs | (5.74 ± 0.45) hrs | None Observed | 0.0015 mg/kg | 0.15 mg/kg | 1.5 mg/kg | 0.5 mg/kg | – | – | – | – | – | 38.2 nM | 37% | 100 | – | –
3 | NCC(=O)NCC(=O)NCC(=O)NCC(=O)NCC(=O)NCCCC[C@H](NC(=O)[C@@H]1CCCN1C(=O)[C@@H]1CSSCCC(=O)N[C@@H](Cc2ccc(O)cc2)C(=O)N[C@@H](Cc2ccccc2)C(=O)N[C@@H](CCCC(N)=O)C(=O)N[C@@H](CC(N)=O)C(=O)N1)C(=O)NCC(N)=O [SEQ ID NO. 12, Mpa-Tyr-Phe-Hgn-Asn-Cys-Pro-Lys(X)a-Gly-NH2; (X)a = (Gly)5] | – | (>6.69)* hrs | (>6.65)* hrs | (5.79 ± 0.08) hrs | None Observed | 0.0015 mg/kg | 0.15 mg/kg | 1.5 mg/kg | 0.5 mg/kg | – | – | – | – | – | 50.1 nM | 29.6% | 100 | – | –
4 | NCCCC[C@@H](NC(=O)[C@@H]1CCCN1C(=O)[C@@H]1CSSCCC(=O)N[C@@H](Cc2ccc(O)cc2)C(=O)N[C@@H](Cc2ccccc2)C(=O)N[C@@H](CCCC(N)=O)C(=O)N[C@@H](CC(N)=O)C(=O)N1)C(=O)NCC(N)=O [SEQ ID NO. 18, Mpa-Tyr-Phe-Hgn-Asn-Cys-Pro-dLys-Gly-NH2] | – | – | – | – | – | 0.005 mg/kg | – | 1.5 mg/kg | 0.5 mg/kg | – | – | – | – | – | – | 0.2% | 30 | > 10000 nM | 0.15 mg/kg
5 | NCC(=O)NCC(=O)NCC(=O)NCC(=O)NCC(=O)NCC(=O)NCC(=O)NCCCC[C@H](NC(=O)[C@@H]1CCCN1C(=O)[C@@H]1CSSCCC(=O)N[C@@H](Cc2ccc(O)cc2)C(=O)N[C@@H](Cc2ccccc2)C(=O)N[C@@H](CCCC(N)=O)C(=O)N[C@@H](CC(N)=O)C(=O)N1)C(=O)NCC(N)=O [SEQ ID NO. 14, Mpa-Tyr-Phe-Hgn-Asn-Cys-Pro-Lys(X)a-Gly-NH2; (X)a = (Gly)7] | – | (>6.44)* hrs | (>6.39)* hrs | (5.86 ± 0.13) hrs | None Observed | 0.0015 mg/kg | 0.15 mg/kg | 1.5 mg/kg | 0.5 mg/kg | – | – | – | – | – | 30.9 nM | 26.1% | 100 | – | –
